Drawing on patent US20250034136A1 (Nimbus Wadjet, Inc., priority 2023, published 2025), this text covers EC50 and IC50 for 18 molecules.

Like-named read-outs stand apart in the source and are kept apart here.

The test system of assay [1] is p21 induction in HCT116 cells. The assay can be described thus: p21 induction in HCT116 cells. In kind it is cell-based. To be noted: read-out: P21_EC50. The essentials: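 EC50 from non-linear curve fit of p21 immunofluorescence (800 nm), with GAPDH (700 nm) read alongside. DMSO and a reference WRN inhibitor served as low and high controls. Cells (2,000/well) got 11 compound concentrations in duplicate for 24 h at 37 °C.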

Assay [2] has as its target WRN (BV08), human Werner helicase (Uniprot Q14191, amino acids 517-1235 with L1074F point mutation) (Homo sapiens (Human), UniProt Q14191, L1074F). The assay can be described thus: WRN (BV08) ADP-Glo assay. In kind it is biochemical. To be noted: class symbols A-E, read-out: ADP-Glo_hWRN_IC50.
Setting [3] is: Homo sapiens, HCT-116, 24 h, HCT116 cells, 24 h compound incubation.

WRN (BV08), human Werner helicase (Uniprot Q14191, amino acids 517-1235 with L1074F point mutation), sequence (Q14191 other isoform, or with tags, fused parts or gaps L1074F (already in the parent)): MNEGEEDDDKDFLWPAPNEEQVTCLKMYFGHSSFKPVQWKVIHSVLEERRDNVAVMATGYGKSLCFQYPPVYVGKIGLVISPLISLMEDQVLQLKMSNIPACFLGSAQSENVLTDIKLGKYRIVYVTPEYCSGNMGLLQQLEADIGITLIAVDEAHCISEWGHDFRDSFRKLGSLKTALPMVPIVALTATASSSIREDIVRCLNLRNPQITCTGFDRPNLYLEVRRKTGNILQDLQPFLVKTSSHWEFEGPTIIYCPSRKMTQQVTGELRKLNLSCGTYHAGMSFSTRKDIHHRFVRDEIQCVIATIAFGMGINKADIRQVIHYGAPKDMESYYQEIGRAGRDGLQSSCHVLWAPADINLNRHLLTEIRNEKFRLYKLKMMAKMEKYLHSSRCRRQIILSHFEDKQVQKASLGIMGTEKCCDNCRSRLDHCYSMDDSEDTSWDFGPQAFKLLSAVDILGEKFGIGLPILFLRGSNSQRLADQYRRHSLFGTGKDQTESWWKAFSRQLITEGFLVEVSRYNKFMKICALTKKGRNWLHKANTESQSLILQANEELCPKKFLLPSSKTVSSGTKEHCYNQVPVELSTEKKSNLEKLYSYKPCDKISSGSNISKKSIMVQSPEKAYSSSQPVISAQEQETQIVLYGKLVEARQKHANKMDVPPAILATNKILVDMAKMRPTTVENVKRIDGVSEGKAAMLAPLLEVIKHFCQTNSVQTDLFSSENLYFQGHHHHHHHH

As to `CCc1c(N2CCN(C(=O)c3ncnc(C)c3O)[C@@H]3CC[C@H]32)c(=O)c2nc(N(C)C3CC3)cnc2n1CC(=O)Nc1ccc(C(F)(F)F)cc1Cl` (single isomer, unassigned) [I-169, N-[2-chloro-4-(trifluoromethyl)phenyl]-2-{2-[cyclopropyl(methyl)amino]-6-ethyl-7-[-5-(5-hydroxy-6-methylpyrimidine-4-carbonyl)-2,5-diazabicyclo[4.2.0]octan-2-yl]-8-oxo-5H,8H-pyrido[2,3-b]pyrazin-5-yl}acetamide], in assay [1] (HCT116 cells, 24 h compound incubation), the EC50 is 500 to 2000 nM. For the same molecule, the IC50 in assay [2] lay within 5 to 50 nM.
For the molecule `CCc1c(N2CCN(C(=O)c3ncnc(C)c3O)CC2)c(=O)c2nc(/C=C/COC)cnc2n1CC(=O)Nc1ccc(C(F)(F)F)cc1Cl` [I-55, (E)-N-(2-chloro-4-(trifluoromethyl)phenyl)-2-(6-ethyl-7-(4-(5-hydroxy-6-methylpyrimidine-4-carbonyl)piperazin-1-yl)-2-(3-methoxyprop-1-en-1-yl)-8-oxopyrido[2,3-b]pyrazin-5(8H)-yl)acetamide], the EC50 in assay [1] (setting [3]) was in the range of 500 to 2000 nM. Also, the IC50 in assay [2] was 5 to 50 nM.
For `CCc1c(N2CCN(C(=O)c3ncnc(C)c3O)[C@H]3CC[C@@H]32)c(=O)c2nc(N(C)C)cnc2n1CC(=O)Nc1ccc(C(F)(F)F)nc1Cl` [I-222, N-[2-chloro-6-(trifluoromethyl)pyridin-3-yl]-2-[2-(dimethylamino)-6-ethyl-7-[(1S,6S)-5-(5-hydroxy-6-methylpyrimidine-4-carbonyl)-2,5-diazabicyclo[4.2.0]octan-2-yl]-8-oxo-5H,8H-pyrido[2,3-b]pyrazin-5-yl]acetamide], in assay [1] (setting [3]), the EC50 was < 500 nM. Moreover, the IC50 in assay [2] fell in the range of 5 to 50 nM.
On to `CCc1c(N2CCN(C(=O)c3c(OC)ncc(C)c3O)C[C@@H]2C)c(=O)c2nc(C3CC3)cnc2n1CC(=O)Nc1ccc(C(F)(F)F)cc1Cl` [I-225, N-[2-chloro-4-(trifluoromethyl)phenyl]-2-{2-cyclopropyl-6-ethyl-7-[(2S)-4-(4-hydroxy-2-methoxy-5-methylpyridine-3-carbonyl)-2-methylpiperazin-1-yl]-8-oxo-5H,8H-pyrido[2,3-b]pyrazin-5-yl}acetamide], for which, in assay [1] (setting [3]), the EC50 is < 500 nM. Further, the IC50 in assay [2] was in the range of 5 to 50 nM.
For `CCc1c(N2CCN(C(=O)c3ncnc(C)c3O)[C@H]3CC[C@@H]32)c(=O)c2nc(N(C)C)cnc2n1CC(=O)Nc1ccc(C(F)(F)F)cc1` [I-104, 2-(2-(dimethylamino)-6-ethyl-7-((1S,6S)-5-(5-hydroxy-6-methylpyrimidine-4-carbonyl)-2,5-diazabicyclo[4.2.0]octan-2-yl)-8-oxopyrido[2,3-b]pyrazin-5(8H)-yl)-N-(4-(trifluoromethyl)phenyl)acetamide], in assay [1] (setting [3]), the EC50 is < 500 nM. Moreover, in assay [2], the IC50 was 5 to 50 nM.
Regarding `CCc1c(N2CCN(C(=O)c3ncnc(C)c3O)CC2)c(=O)c2nc(OC3CCC3)cnc2n1CC(=O)Nc1ccc(C(F)(F)F)cc1Cl` [I-141, N-[2-chloro-4-(trifluoromethyl)phenyl]-2-{2-cyclobutoxy-6-ethyl-7-[4-(5-hydroxy-6-methylpyrimidine-4-carbonyl)piperazin-1-yl]-8-oxo-5H,8H-pyrido[2,3-b]pyrazin-5-yl}acetamide], in assay [1] (setting [3]), the EC50 is > 5000 nM. Further, the IC50 in assay [2] lay in the range of 5 to 50 nM.
In the case of `CCc1c(N2CCN(C(=O)c3ncnc(C)c3O)CC2)c(=O)c2nc(N(C)C)cnc2n1CC(=O)Nc1c(F)cc(C(F)(F)F)cc1Cl` [I-133, N-[2-chloro-6-fluoro-4-(trifluoromethyl)phenyl]-2-[2-(dimethylamino)-6-ethyl-7-[4-(5-hydroxy-6-methylpyrimidine-4-carbonyl)piperazin-1-yl]-8-oxo-5H,8H-pyrido[2,3-b]pyrazin-5-yl]acetamide], the EC50 in assay [1] (setting [3]) was > 5000 nM. Besides, in assay [2], the IC50 is 5 to 50 nM.
As for `CCc1c(N2CCN(C(=O)c3ncnc(C)c3O)CC2)c(=O)c2nc(OC3COC3)cnc2n1CC(=O)Nc1ccc(C(F)(F)F)cc1Cl` [I-140, N-[2-chloro-4-(trifluoromethyl)phenyl]-2-{6-ethyl-7-[4-(5-hydroxy-6-methylpyrimidine-4-carbonyl)piperazin-1-yl]-2-(oxetan-3-yloxy)-8-oxo-5H,8H-pyrido[2,3-b]pyrazin-5-yl}acetamide], the EC50 in assay [1] (setting [3]) was > 5000 nM. The IC50 in assay [2] is > 500 nM.
For `CCc1c(N2CCN(C(=O)c3ncnc(C)c3O)CC2)c(=O)c2nc(NC(C)=O)cnc2n1CC(=O)Nc1ccc(C(F)(F)F)cc1Cl` [I-31, 2-(2-acetamido-6-ethyl-7-(4-(5-hydroxy-6-methylpyrimidine-4-carbonyl)piperazin-1-yl)-8-oxopyrido[2,3-b]pyrazin-5(8H)-yl)-N-(2-chloro-4-(trifluoromethyl)phenyl)acetamide], in assay [1] (setting [3]), the EC50 is > 5000 nM. The IC50 in assay [2] lay in the range of 5 to 50 nM.
As for `CCc1c(N2CCN(C(=O)c3ncnc(C)c3O)CC2)c(=O)c2nc(N(C)CCOC)cnc2n1CC(=O)Nc1ccc(C(F)(F)F)cc1Cl` [I-72, N-(2-chloro-4-(trifluoromethyl)phenyl)-2-(6-ethyl-7-(4-(5-hydroxy-6-methylpyrimidine-4-carbonyl)piperazin-1-yl)-2-((2-methoxyethyl)(methyl)amino)-8-oxopyrido[2,3-b]pyrazin-5(8H)-yl)acetamide], the EC50 in assay [1] (setting [3]) was > 5000 nM. In addition, the IC50 in assay [2] lay within 5 to 50 nM.
For the molecule `CCc1c(N2CCN(C(=O)c3ncnc(C)c3O)CC2)c(=O)c2nc(N3CCCC3=O)cnc2n1CC(=O)Nc1ccc(C(F)(F)F)cc1Cl` [I-27, N-(2-chloro-4-(trifluoromethyl)phenyl)-2-(6-ethyl-7-(4-(5-hydroxy-6-methylpyrimidine-4-carbonyl)piperazin-1-yl)-8-oxo-2-(2-oxopyrrolidin-1-yl)pyrido[2,3-b]pyrazin-5(8H)-yl)acetamide], the EC50 in assay [1] (setting [3]) was > 5000 nM. Further, the IC50 in assay [2] lay within 5 to 50 nM.
Consider `CCc1c(N2CCN(C(=O)c3ncnc(C)c3O)CC2)c(=O)c2nc(C3=CCOCC3)cnc2n1CC(=O)Nc1ccc(C(F)(F)F)cc1Cl` [I-82, N-(2-chloro-4-(trifluoromethyl)phenyl)-2-(2-(3,6-dihydro-2H-pyran-4-yl)-6-ethyl-7-(4-(5-hydroxy-6-methylpyrimidine-4-carbonyl)piperazin-1-yl)-8-oxopyrido[2,3-b]pyrazin-5(8H)-yl)acetamide], for which the EC50 in assay [1] (setting [3]) was > 5000 nM. The IC50 in assay [2] was in the range of 5 to 50 nM.
In the case of `CCc1c(N2CCN(C(=O)c3ncnc(C)c3O)CC2)c(=O)c2nc(N(C)C)cnc2n1CC(=O)Nc1ccc(C(F)(F)F)cc1Cl` [I-14, N-(2-chloro-4-(trifluoromethyl)phenyl)-2-(2-(dimethylamino)-6-ethyl-7-(4-(5-hydroxy-6-methylpyrimidine-4-carbonyl)piperazin-1-yl)-8-oxopyrido[2,3-b]pyrazin-5(8H)-yl)acetamide], in assay [1] (Homo sapiens, HCT-116, 24 h), the EC50 lay in the range of 500 to 2000 nM. Moreover, in assay [2], the IC50 lay in the range of 5 to 50 nM.
With `CCc1c(N2CCN(C(=O)c3ncnc(C)c3O)CC2)c(=O)c2nc(-n3cccn3)cnc2n1CC(=O)Nc1ccc(C(F)(F)F)cc1Cl` [I-201, N-[2-chloro-4-(trifluoromethyl)phenyl]-2-{6-ethyl-7-[4-(5-hydroxy-6-methylpyrimidine-4-carbonyl)piperazin-1-yl]-8-oxo-2-(1H-pyrazol-1-yl)-5H,8H-pyrido[2,3-b]pyrazin-5-yl}acetamide], the EC50 in assay [1] (setting [3]) fell in the range of 2000 to 5000 nM. For the same molecule, the IC50 in assay [2] fell in the range of 5 to 50 nM.
`CCc1c(N2CCN(C(=O)c3ncnc(C)c3O)CC2)c(=O)c2nc(C3CC3)c(C)nc2n1CC(=O)Nc1ccc(C(F)(F)F)cc1Cl` [I-17, N-(2-chloro-4-(trifluoromethyl)phenyl)-2-(2-cyclopropyl-6-ethyl-7-(4-(5-hydroxy-6-methylpyrimidine-4-carbonyl)piperazin-1-yl)-3-methyl-8-oxopyrido[2,3-b]pyrazin-5(8H)-yl)acetamide]: the EC50 in assay [1] (setting [3]) lay in the range of 500 to 2000 nM. For the same molecule, the IC50 in assay [2] lay within 5 to 50 nM.
Consider `CCc1c(N2CCN(C(=O)c3ncnc(C)c3O)CC2)c(=O)c2nc(/C=C/C(=O)N(C)C)cnc2n1CC(=O)Nc1ccc(C(F)(F)F)cc1Cl` [I-134, (2E)-3-[5-({[2-chloro-4-(trifluoromethyl)phenyl]carbamoyl}methyl)-6-ethyl-7-[4-(5-hydroxy-6-methylpyrimidine-4-carbonyl)piperazin-1-yl]-8-oxo-5H,8H-pyrido[2,3-b]pyrazin-2-yl]-N,N-dimethylprop-2-enamide], for which the EC50 in assay [1] (setting [3]) was > 5000 nM. In assay [2], the IC50 was 50 to 100 nM.
For `CCc1c(N2CCN(C(=O)c3ncnc(C)c3O)[C@@H]3CCC[C@H]32)c(=O)c2nc(N(C)C)cnc2n1CC(=O)Nc1ccc(C(F)(F)F)cc1Cl` [I-215, 2-{7-[(4aR,7aR)-4-(5-hydroxy-6-methylpyrimidine-4-carbonyl)-octahydro-1H-cyclopenta[b]pyrazin-1-yl]-2-(dimethylamino)-6-ethyl-8-oxo-5H,8H-pyrido[2,3-b]pyrazin-5-yl}-N-[2-chloro-4-(trifluoromethyl)phenyl]acetamide], in that order: > 5000 nM and 100 to 500 nM.
For `C/C=C/c1cnc2c(n1)c(=O)c(N1CCN(C(=O)c3ncnc(C)c3O)CC1)c(CC)n2CC(=O)Nc1ccc(C(F)(F)F)cc1Cl` [I-8, (E)-N-(2-chloro-4-(trifluoromethyl)phenyl)-2-(6-ethyl-7-(4-(5-hydroxy-6-methylpyrimidine-4-carbonyl)piperazin-1-yl)-8-oxo-2-(prop-1-en-1-yl)pyrido[2,3-b]pyrazin-5(8H)-yl)acetamide], the EC50 in assay [1] (setting [3]) was in the range of 500 to 2000 nM. Also, in assay [2], the IC50 lay within 5 to 50 nM.
